According to ChEMBL document CHEMBL5727681, “Alkoxy compounds for disease treatment” (2020):
pIC50: −log10 of the molar value.

assay: In Vitro Isomerase Inhibition Assay: Isomerase inhibition reactions were performed essentially as described (Stecher et al., J Biol. Chem. 274:8577-85 (1999).

SMILES	pIC50
NCCCc1cccc(OCC2CCCCC2)c1	> 7.00
CCCC(CCC)COc1cccc(CCCN)c1	> 7.00
NCCC(=O)c1cccc(OCC2CCCCCC2)c1	> 7.00
NCCOc1cccc(OCC2CCCCC2)c1	> 7.00
NCCC(=O)c1cccc(OCC2CCCCC2)c1	> 7.00

Next, values leading:

pIC50	SMILES
> 7.00	CCC(CC)COc1cccc(CCCN)c1
> 7.00	NCCOc1cccc(OCC2CCCCCC2)c1
> 7.00	NCCC(O)c1cccc(OCC2(O)CCCCC2)c1 (stereo unspecified)
> 7.00	NCCCc1cccc(OCC2(O)CCCCC2)c1
> 7.00	NCC(O)Cc1cccc(OCC2CCCCC2)c1 (stereo unspecified)
> 7.00	CCCC(O)(CCC)COc1cccc(C(O)CCN)c1 (stereo unspecified)
